This is an account of results in PubChem BioAssay (NCI).

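Compound exposure: 48 hours, 5 concentrations, 96-well plates. At the TGI there is no net growth.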 Bounds are passed on as bounds.

Among the test systems are CCRF-CEM leukemia; COLO 205 colon; DU-145 prostate; EKVX NSCLC; HCC-2998 colon; KM12 colon; MDA-N; RXF 393 renal; SK-MEL-2 melanoma; NCI-H522 lung; SF-295 CNS.
Common to all, as to assay: inhibition of tumour cell growth, NCI panel, 48 h

Consider `COc1cccc2cc(C(N)=O)c(=N)oc12`, for which the TGI in the assay with CCRF-CEM leukemia, in the assay with COLO 205 colon, in the assay on DU-145 prostate, in the assay with EKVX NSCLC, with HCC-2998 colon and with KM12 colon was more than 100 µM in each case. Moreover, the results for the TGI in the assay with MDA-N, in the assay with RXF 393 renal and in the assay with SK-MEL-2 melanoma were more than 100 µM, more than 100 µM and 60.7 µM, respectively.
For `CC(C)OP(=O)(CN(C)/C(F)=N\C(F)(F)F)OC(C)C`, the TGI with CCRF-CEM leukemia, in the assay on COLO 205 colon, with DU-145 prostate, in the assay on EKVX NSCLC, with HCC-2998 colon and in the assay on KM12 colon was more than 100 µM each time. The TGI with MDA-N, with NCI-H522 lung, in the assay with RXF 393 renal, in the assay on SF-295 CNS and in the assay with SK-MEL-2 melanoma was more than 100 µM in each case.
In the case of `C1COC(NC(C2CC2)C2CC2)=N1`, the TGI with CCRF-CEM leukemia, in the assay with COLO 205 colon, with DU-145 prostate, in the assay with EKVX NSCLC, with HCC-2998 colon and in the assay on KM12 colon was more than 100 µM in each case. In addition, the TGI with MDA-N, with NCI-H522 lung, with RXF 393 renal, in the assay with SF-295 CNS and in the assay with SK-MEL-2 melanoma was more than 100 µM throughout.
For the compound `CC(=O)OC1CC2CCC1(C)C2(C)C` (configuration not stated), the TGI with CCRF-CEM leukemia, with COLO 205 colon, with DU-145 prostate, in the assay on HCC-2998 colon, with KM12 colon and with MDA-N was more than 100 µM throughout. For the same compound, the TGI in the assay on NCI-H522 lung, with RXF 393 renal, in the assay on SF-295 CNS and with SK-MEL-2 melanoma was more than 100 µM throughout.
`O=C1c2ccccc2CC12Cc1cc3c(cc1C2=O)CCC3` (configuration not stated): the TGI with CCRF-CEM leukemia, in the assay with DU-145 prostate, with EKVX NSCLC, with HCC-2998 colon, in the assay on MDA-N and in the assay with NCI-H522 lung was more than 100 µM each time. Moreover, the TGI in the assay on RXF 393 renal, in the assay on SF-295 CNS and with SK-MEL-2 melanoma was more than 100 µM throughout.
As to `CCOP(=O)(/C=C\n1cnc2c(=O)n(C(C)=O)c(N)nc21)OCC`, the TGI with CCRF-CEM leukemia, with COLO 205 colon, with DU-145 prostate, with EKVX NSCLC, in the assay with KM12 colon and in the assay on MDA-N was more than 100 µM in each case. Further, the TGI in the assay with RXF 393 renal and in the assay on SF-295 CNS was more than 100 µM each time.
For the compound `CC(C)(C)c1ccc(CN2CCN(C(c3ccccc3)c3ccc(Cl)cc3)CC2)cc1` (configuration not stated), the TGI in the assay on COLO 205 colon is more than 100 µM; with DU-145 prostate, more than 100 µM; with EKVX NSCLC it was more than 100 µM; with HCC-2998 colon, 89.4 µM; with KM12 colon, more than 100 µM; in the assay with MDA-N it was more than 100 µM. For the same compound, the TGI is 85.1 µM in the assay on NCI-H522 lung, 82.7 µM in the assay on RXF 393 renal, more than 100 µM in the assay on SF-295 CNS and more than 100 µM with SK-MEL-2 melanoma.
Turning to `O=c1[nH]c2ccc(CC(=S)N3CCOCC3)cc2s1`, the TGI in the assay on CCRF-CEM leukemia, in the assay with COLO 205 colon, in the assay on DU-145 prostate, with EKVX NSCLC, with KM12 colon and with MDA-N was more than 100 µM throughout. Besides, the TGI with RXF 393 renal, in the assay with SF-295 CNS and with SK-MEL-2 melanoma was more than 100 µM in each case.
Consider `N#Cc1c(-c2ccccc2)/c(=C\O)c(=O)n2c1nc1ccccc12`, for which the TGI in the assay on CCRF-CEM leukemia, in the assay on COLO 205 colon, in the assay with DU-145 prostate, in the assay on EKVX NSCLC, in the assay on KM12 colon and with MDA-N was more than 100 µM in each case. The TGI with NCI-H522 lung, in the assay with RXF 393 renal, in the assay on SF-295 CNS and in the assay with SK-MEL-2 melanoma was more than 100 µM each time.
On to `Cc1cccc(Nc2cn(COCc3ccccc3)c(=O)[nH]c2=O)c1`, for which the TGI with CCRF-CEM leukemia, with COLO 205 colon, with DU-145 prostate, in the assay with EKVX NSCLC, in the assay on HCC-2998 colon and with KM12 colon was more than 100 µM throughout. For the same compound, the TGI was more than 100 µM with MDA-N, 97.2 µM with NCI-H522 lung, more than 100 µM with RXF 393 renal and more than 100 µM in the assay with SF-295 CNS.
Turning to `O=C(/C=C/c1ccc(O)c(O)c1)OCCc1cccc2ccccc12`, the TGI in the assay with CCRF-CEM leukemia is 11.2 µM; in the assay with COLO 205 colon it was 20.5 µM; in the assay on DU-145 prostate, 18.6 µM; in the assay with HCC-2998 colon, 23.4 µM; with KM12 colon, 23.4 µM; with MDA-N it was 5.26 µM. The TGI in the assay on NCI-H522 lung is 4.17 µM; in the assay with RXF 393 renal, 25.1 µM; in the assay with SF-295 CNS, 17.9 µM; in the assay with SK-MEL-2 melanoma, 10.2 µM.
For the compound `CC[C@@]1(O)C(=O)OCc2c1cc1n(c2=O)Cc2c-1nc1ccccc1c2CC[Si](C)(C)C`, the TGI with COLO 205 colon was 14.2 µM; with DU-145 prostate, more than 100 µM; in the assay on EKVX NSCLC, more than 100 µM; in the assay with HCC-2998 colon, 0.713 µM; in the assay on MDA-N, more than 100 µM; in the assay with NCI-H522 lung, 1.55 µM. Further, the TGI in the assay with RXF 393 renal stood at 0.371 µM; with SF-295 CNS, 0.0544 µM; in the assay on SK-MEL-2 melanoma, 0.484 µM.
In the case of `N#CCC(=O)Nn1c(CC#N)nnc1Cc1ccccc1`, the TGI in the assay on DU-145 prostate, in the assay with HCC-2998 colon, in the assay with KM12 colon, in the assay with MDA-N, with NCI-H522 lung and in the assay on RXF 393 renal was more than 100 µM in each case. The TGI with SF-295 CNS and in the assay with SK-MEL-2 melanoma was more than 100 µM throughout.
As to `CC1CCCC2=C1C(c1ccc(Cl)cc1)n1c(s/c(=C\c3ccc(Cl)cc3)c1=O)=N2` (configuration not stated), the TGI in the assay with CCRF-CEM leukemia, in the assay with COLO 205 colon, in the assay on DU-145 prostate, in the assay on EKVX NSCLC, in the assay on KM12 colon and with MDA-N was more than 100 µM each time. Moreover, the TGI with RXF 393 renal and in the assay on SK-MEL-2 melanoma was more than 100 µM in each case.
